Results as given in patent US8557290B2, “Multifunction nanoconjugates for imaging applications and targeted treatment” (priority 2008, dated 2013).

Tests used:
[1] = system: plasmid DNA (pKaede-MN1 plasmid with R18 insert); test: Light-induced plasmid DNA cleavage, agarose gel electrophoresis; type: biochemical
Procedure: Reactions containing plasmid DNA and either buffer, alizarin red s, TiO2 nanoparticles, or alizarin red s-coated TiO2 nanoparticles were incubated at 37° C. for 10 minutes and either kept in the dark or illuminated with a 75 watt halogen bulb for 5-10 minutes (FIG. 36). Samples were then run via electrophoresis at 50 volts for 4 hours on a 1.25% agarose gel and scanned on a Typhoon Trio multi-mode imager to visualize the different resulting configurations of plasmid DNA (FIG. 36). […] To confirm the identities of plasmid configurations resulting from excitation of alizarin red s-coated TiO2 nanoparticles, supercoiled, nicked, and linearized plasmid DNA bands were excised and purified from the agarose gel.
The role of the latter was investigated by expanding upon previous experiments and using TiO2 nanoparticles that were coated with glycidyl isopropyl ether (GIE), which reduces interaction between the nanoparticle surface and its surrounding environment (Paunesku et al Nat. Mater. 2003, 2, 343-346; Rajh et al Nano Lett. 2004, 4, 1017-1023). Plasmid samples containing either GIE, GIE and alizarin red s, or GIE-alizarin red s-coated TiO2 nanoparticles were illuminated for 5 minutes with 150W halogen bulb (FIG. 39).
The effect of conjugating different peptide nucleic acid sequences to GIE-alizarin-coated TiO2 nanoparticles on DNA cleavage was investigated (FIG. 40A).

MCF-7 cells [2] = test: Intracellular localization by confocal fluorescent microscopy; conditions: 1 hour treatment
in vitro = conditions: rat
PC-3M cells = conditions: human, 24 h, 20 mM
Procedure: All cell culture reagents were purchased from Mediatech Inc. unless otherwise specified. […] Both cell lines were maintained at 37° C. with 5% CO2 in RPMI 1640 media supplemented with fetal bovine serum (10%), L-glutamine (2 mM), HEPES (10 mM), penicillin (100 I.U./ml), streptomycin (100 μg/ml). […] PC-3M cells were further supplemented with G418 sulfate (0.15 mg/ml). For treatment, cells were washed with phosphate buffered saline solution (PBS) and placed in serum free RPMI 1640 for 1-2 hours. Then cells were treated with TiO2 nanoparticles (333 nM) coated with or without ARS (60 μM), and/or ODN (160 μM) for one hour. […]
After treatment and washing, cells were trypsinized, collected in FBS supplemented medium, and brought to a single cell suspension. […] Samples were then taken to the Northwestern University Flow Cytometry Core Facility of the Robert H. Lurie Cancer Center to be analyzed or sorted on the DakoCytomation MoFlo Flow Cytometer (Dako). […]
Labeling the nanoparticles, however, allowed one to screen the treated cells simultaneously for nanoparticle uptake (by ARS fluorescence) and for viability (by use of fluorescent cell-impermeable dye). […] Flow cytometry was then used to quantify both the extent of nanoparticle uptake within the cell population, and the cells' ability to exclude cell-impermeable DAPI as an indicator of cell viability.

MCF-7 cells [3] = test: Intracellular Gd by ICP-MS of agarose phantoms with embedded cells; type: cell-based, human; conditions: 48 hours after transfection
Procedure: Sections of agarose phantoms with embedded cells were analyzed by ICP-MS.

[4] = system: MCF-7/WS8 breast cancer cells; test: MRI T1 and signal intensity of MCF-7 cells transfected with SuperFect reagent, in agarose phantoms; type: cell-based, human; conditions: for T1 value, Equation method / T1 value, Null point method / Signal intensity: SuperFect; for T1 value, Equation method / T1 value, Null point method: 48 hours after treatment, 1.5 T; for Signal intensity: T1-weighted
Procedure: For transfection experiments MCF-7/W8/WS8 breast cancer cells (American Type Culture Collection, ATCC, Manassas, Va.) and PC3-M prostate cancer cells (ATCC) were grown in a 5% CO2 humidified atmosphere in RPMI1640 cell culture medium (this and all other standard cell culture supplements were from Invitrogen/Gibco, Carlsbad, Calif.) supplemented with 10% fetal bovine serum and antibiotic-antimycotic. MCF-7/WS8 medium also contained insulin at a concentration of 10 μg/mL (Sigma, St. Louis, Mo.), 200 mM 1-glutamine, and 10 mM nonessential amino acids; PC3-M medium also contained 25 μg/mL G418 and 2.4 mg/mL HEPES. Nearly confluent cells were serum-starved for 16 to 20 hours before transfection or treatment.
For SuperFect transfection, 60 μL of SuperFect reagent (Qiagen, Valencia, Calif.) and 300 μL of any one of the following: (1) Gd contrast agent, (2) TiO2 nanoparticles, or (3) TiO2-DNA-Gd nanoconjugates were used; these mixtures were applied onto 16 million cells each. Final concentrations of these agents in the medium were (1) 144 μM Gd; (2) 0.12 μM TiO2 nanoparticles, or (3) TiO2-DNA-Gd nanoconjugates wherein TiO2 nanoparticles were 0.12 μM and Gd was 75.6 μM in concentration. Media were exchanged for fresh complete cell media 24 hours later and, after an additional 24-hour incubation, cells were harvested for imaging.
In all cases, cells harvested for MRI were embedded in 300 μL agarose phantoms. Once the MRI was completed, these phantoms were used for ICP-MS and/or preparation of paraffin-embedded samples for sectioning and imaging by x-ray fluorescence microscopy.
To prepare samples for MRI, 150 μL of Hank's balanced buffered salt solution (HBBS; Invitrogen/Gibco) containing cells were mixed with 2% agarose melted in 150 μL of HBBS. Cells in agarose solidified as a plug and were transferred into tubes, placed in a water bath, and imaged using a 1.5 T Siemens Sonata system (Erlangen, Germany) with a four-channel head coil for signal reception and body coil for excitation. T 1 of each sample was measured using an inversion recovery sequence with repetition time (TR)=4000 ms and inversion times of 50, 200, 500, 800, 1000, 1200, 1500, and 2000 ms. Other scan parameters were: field of view=125×200 mm^2; acquisition matrix=115×192; readout bandwidth=965 Hz/pixel; slice thickness=5 mm; all images were acquired in the coronal orientation.
For data analysis the raw data of signal intensity versus TI were fit to the equation: Signal intensity=abs(A*(1−2*exp(−R1*TI))+C, where R1=1/T1. Variables A and C are free parameters of the model. The confidence interval was determined statistically; R2 indicates goodness of fit. The TI corresponding to the lowest signal intensity (TInull) is an indication of the T1 value; this relationship can be estimated by the equation: T1=TInull/ln(2). T1 values determined using the results of the equation fit and the null point relationship are listed in Table 2. Signal intensity, a quantitative metric of relative brightness, was measured with a circular region-of-interest within each sample.

In the case of O=C1c2ccccc2C(=O)c2c1cc(S(=O)(=O)O)c(O)c2O [ARS, 1,2 dihydroxyanthraquinone-3-sulfonate], the “plasmid DNA cleavage upon light exposure” value ([1]; 75 watt halogen bulb, 5-10 minutes) was “increase in the presence of nicked plasmid”.
For COc1cccc2c1C(=O)c1c(O)c3c(c(O)c1C2=O)C[C@@](O)(C(=O)CO)C[C@@H]3O[C@H]1C[C@H](N)[C@H](O)[C@H](C)O1 [free doxorubicin, Doxorubicin], the subcellular localization (MCF-7 cells [2]) was “predominantly located in the cell nucleus” and the viability at 4 days, 1.72 μM (in vitro) was 79.6%.
For OO [H2O2, hydrogen peroxide], the reduction in viability (PC-3M cells) was “approximately 54%”.
With CC(C)OCC1CO1 (centres unmarked) [GIE, glycidyl isopropyl ether] the “plasmid DNA cleavage upon light exposure” value ([1]; 150W halogen bulb, 5 minutes, three replicate experiments) was “not cleaved”.
For “PGA-1,6-hexanediamine-(Gd-DOTA)-dopamine conjugate”, the “intracellular concentration of Gd (average)” value (MCF-7 cells [3]; 5×10^6 cells, ICP-MS) was 0.75 µM, the “Gd retention relative to Gd in cell media” value (MCF-7 cells [3]) was 0.5% and the “T1 value, Equation method” value ([4]; 5 × 10^5 cells) was 1799. For the same molecule, the “T1 value, Null point method” value ([4]; 5 × 10^5 cells) was 1436, the Signal intensity ([4]; 5 × 10^5 cells, inversion time 1000 ms) was 33 and the “T1 value, Equation method” value ([4]; 5 × 10^6 cells) was 1625. The “T1 value, Null point method” value ([4]; 5 × 10^6 cells) was 1235, the Signal intensity ([4]; 5 × 10^6 cells, inversion time 1000 ms) was 71 and the “T1-weighted signal enhancement of treated cells” value ([4]; T1-weighted images, inversion time 1000 ms, 24 or 48 hours after treatment) was “no T1-weighted enhancement”.
